Data on 22 molecules can be found in patent US11021493B2, “1,4-thiazine dioxide and 1,2,4-thiadiazine dioxide derivatives as beta-secretase inhibitors and methods of use” (AMGEN INC., priority 2016, dated 2021).

The term IC50 denotes the concentration that inhibits the measured activity by half.

Where a name gives a salt, the structure may show the parent alone.

In experiment [1] the target is T1, BACE1 (Homo sapiens (Human), UniProt P56817). Nature of the experiment: In vitro BACE1 cell-based assay (Aβ40 in conditioned medium of cells stably expressing APP, HTRF). For orientation: TR-FRET usually uses a lanthanide donor and a delayed reading to cut background.
Target sequence in this assay (P56817 46-501, species assumed): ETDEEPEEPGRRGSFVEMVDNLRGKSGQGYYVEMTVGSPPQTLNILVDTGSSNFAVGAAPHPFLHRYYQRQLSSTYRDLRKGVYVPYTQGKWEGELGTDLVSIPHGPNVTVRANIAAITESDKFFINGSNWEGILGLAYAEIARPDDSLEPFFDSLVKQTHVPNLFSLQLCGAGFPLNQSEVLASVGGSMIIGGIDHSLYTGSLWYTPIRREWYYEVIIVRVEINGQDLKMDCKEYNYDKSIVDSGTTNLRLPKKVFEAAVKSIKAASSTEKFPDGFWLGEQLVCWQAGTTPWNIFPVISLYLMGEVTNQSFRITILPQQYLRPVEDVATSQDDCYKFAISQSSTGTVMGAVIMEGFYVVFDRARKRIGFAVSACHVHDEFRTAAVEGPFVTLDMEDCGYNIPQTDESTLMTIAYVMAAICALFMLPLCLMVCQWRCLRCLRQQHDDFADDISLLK
The target of experiment [2] is T1, BACE1. Nature of the experiment: In vitro enzymatic BACE1 FRET assay. The experiment is classed as biochemical. As to conditions: read-out: BACE1 Enzyme IC50.
Target sequence in this assay (P56817 46-501): as the sequence (P56817 46-501, species assumed) above
The target of a further experiment is human recombinant BACE2 (Homo sapiens (Human), UniProt Q9Y5Z0). Briefly: In vitro enzymatic BACE2 FRET assay. It counts as biochemical. As to conditions: read-out: BACE2 Enzyme IC50.
The target of a further experiment is Cathepsin D (CatD) (Homo sapiens (Human), UniProt P07339). Nature of the experiment: In vitro enzymatic Cathepsin D (CatD) FRET assay. The experiment is classed as biochemical. The following applies: read-out: Cat D Enzyme IC50.
[3] abbreviates: Aβ40 in conditioned media after 24 h incubation.

human recombinant BACE2, sequence (Q9Y5Z0 63-518): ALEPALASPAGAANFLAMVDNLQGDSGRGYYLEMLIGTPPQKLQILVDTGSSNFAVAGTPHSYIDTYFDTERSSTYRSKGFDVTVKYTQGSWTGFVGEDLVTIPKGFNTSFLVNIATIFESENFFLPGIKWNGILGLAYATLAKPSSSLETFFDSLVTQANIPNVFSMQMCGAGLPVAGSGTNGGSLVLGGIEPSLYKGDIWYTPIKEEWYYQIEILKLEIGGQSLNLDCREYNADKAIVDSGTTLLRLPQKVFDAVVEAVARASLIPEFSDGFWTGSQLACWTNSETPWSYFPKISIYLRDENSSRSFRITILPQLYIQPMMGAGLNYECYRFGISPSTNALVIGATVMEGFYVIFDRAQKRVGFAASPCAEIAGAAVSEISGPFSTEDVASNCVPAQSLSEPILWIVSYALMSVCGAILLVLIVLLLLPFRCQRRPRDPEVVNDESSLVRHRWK
Cathepsin D (CatD), sequence (P07339 65-412, species assumed): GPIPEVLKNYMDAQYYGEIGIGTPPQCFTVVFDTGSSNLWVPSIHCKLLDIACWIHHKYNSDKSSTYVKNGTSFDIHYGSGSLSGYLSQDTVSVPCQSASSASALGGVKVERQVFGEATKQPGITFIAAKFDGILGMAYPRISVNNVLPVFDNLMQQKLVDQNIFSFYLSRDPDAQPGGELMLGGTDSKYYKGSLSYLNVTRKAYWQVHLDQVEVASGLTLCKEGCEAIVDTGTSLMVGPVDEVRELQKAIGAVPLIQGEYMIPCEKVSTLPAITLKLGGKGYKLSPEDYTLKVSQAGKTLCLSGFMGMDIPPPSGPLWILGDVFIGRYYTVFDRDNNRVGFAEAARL

On to `C#CCOc1cnc(/C(F)=C/c2ccc(F)c([C@]3(C)CS(=O)(=O)C(C)(C)C(N)=N3)c2)cn1` [Example 123, (R,Z)-5-amino-3-(2-fluoro-5-(2-fluoro-2-(5-(prop-2-yn-1-yloxy)pyrazin-2-yl)vinyl)phenyl)-3,6,6-trimethyl-3,6-dihydro-2H-1,4-thiazine 1,1-dioxide], for which the IC50 against BACE1 [1] worked out at 3 nM; on BACE1 [2] it was 1 nM.

Turning to `CC1(C)C(N)=N[C@](C)(c2cc(/C=C(\F)c3cnc(O)cn3)ccc2F)CS1(=O)=O` [Example 140, (R,Z)-5-amino-3-(2-fluoro-5-(2-fluoro-2-(5-hydroxypyrazin-2-yl)vinyl)phenyl)-3,6,6-trimethyl-3,6-dihydro-2H-1,4-thiazine 1,1-dioxide], the IC50 is 203 nM at human recombinant BACE2, 241 nM against BACE1 [1] (setting [3]) and 177000 nM at Cathepsin D (CatD).

For the molecule `CC1(C)C(N)=N[C@](C)(c2cc(/C=C(\F)c3cnc(Cl)cn3)ccc2F)CS1(=O)=O` [Example 159, (R,Z)-5-amino-3-(5-(2-(5-chloropyrazin-2-yl)-2-fluorovinyl)-2-fluorophenyl)-3,6,6-trimethyl-3,6-dihydro-2H-1,4-thiazine 1,1-dioxide], the IC50 at human recombinant BACE2 was determined as 3 nM; on Cathepsin D (CatD), 143000 nM.

Regarding `CC#CCOc1cnc(/C(F)=C/c2cc(F)c(F)c([C@]3(C)CS(=O)(=O)N(C)C(N)=N3)c2)cn1` [Example 165, (R,Z)-3-amino-5-(5-(2-(5-(but-2-yn-1-yloxy)pyrazin-2-yl)-2-fluorovinyl)-2,3-difluorophenyl)-2,5-dimethyl-5,6-dihydro-2H-1,2,4-thiadiazine 1,1-dioxide], the figures for the IC50 at human recombinant BACE2 and at Cathepsin D (CatD) were 47 nM and 18200 nM, respectively.

Turning to `C#C[C@H](C)Oc1cnc(/C(F)=C/c2cc(F)c(F)c([C@]3(C)CS(=O)(=O)N(C)C(N)=N3)c2)cn1` [Example 167, (R)-3-amino-5-(5-((Z)-2-(5-((S)-but-3-yn-2-yloxy)pyrazin-2-yl)-2-fluorovinyl)-2,3-difluorophenyl)-2,5-dimethyl-5,6-dihydro-2H-1,2,4-thiadiazine 1,1-dioxide hydrochloride], the IC50 was found to be 290 nM on human recombinant BACE2, 11 nM on BACE1 [1] (setting [3]) and 32500 nM on Cathepsin D (CatD).

As to `CC#CCOc1cnc(/C(F)=C/c2ccc(F)c([C@]3(C)CS(=O)(=O)N(C)C(N)=N3)c2)cn1` [Example 168, (R,Z)-3-amino-5-(5-(2-(5-(but-2-yn-1-yloxy)pyrazin-2-yl)-2-fluorovinyl)-2-fluorophenyl)-2,5-dimethyl-5,6-dihydro-2H-1,2,4-thiadiazine 1,1-dioxide], the values for the IC50 at human recombinant BACE2 and on Cathepsin D (CatD) were 10 nM and 25400 nM, respectively.

`CN1C(N)=N[C@](C)(c2cc(/C=C(\F)c3cnc(OCC4CCC4)cn3)ccc2F)CS1(=O)=O` [Example 174, (R,Z)-3-amino-5-(5-(2-(5-(cyclobutylmethoxy)pyrazin-2-yl)-2-fluorovinyl)-2-fluorophenyl)-2,5-dimethyl-5,6-dihydro-2H-1,2,4-thiadiazine 1,1-dioxide]: the figures for the IC50 on human recombinant BACE2, on BACE1 [1] (setting [3]) and on Cathepsin D (CatD) were 113 nM, 1400 nM and 22000 nM, respectively.

Consider `CN1C(N)=N[C@](C)(c2cc(/C=C(\F)c3cnc(C#N)cn3)ccc2F)C(C)(C)S1(=O)=O` [Example 181, (R,Z)-5-(2-(3-(3-amino-2,5,6,6-tetramethyl-1,1-dioxido-5,6-dihydro-2H-1,2,4-thiadiazin-5-yl)-4-fluorophenyl)-1-fluorovinyl)pyrazine-2-carbonitrile], for which the IC50 is 87 nM on human recombinant BACE2 and 178000 nM at Cathepsin D (CatD).

As for `CC1(C)C(N)=N[C@](C)(c2cc(/C=C(\F)c3cnc(OCC4CC4)cn3)ccc2F)CS1(=O)=O` [Example 206, (R,Z)-5-amino-3-(5-(2-(5-(cyclopropylmethoxy)pyrazin-2-yl)-2-fluorovinyl)-2-fluorophenyl)-3,6,6-trimethyl-3,6-dihydro-2H-1,4-thiazine 1,1-dioxide], the figures for the IC50 at human recombinant BACE2 and at Cathepsin D (CatD) were 139 nM and 74700 nM, respectively.

For `CN1C(N)=N[C@](C)(c2cc(/C=C(\F)c3cnc(OCc4cscn4)cn3)cc(F)c2F)CS1(=O)=O` [Example 220, (R,Z)-3-amino-5-(2,3-difluoro-5-(2-fluoro-2-(5-(thiazol-4-ylmethoxy)pyrazin-2-yl)vinyl)phenyl)-2,5-dimethyl-5,6-dihydro-2H-1,2,4-thiadiazine 1,1-dioxide], the IC50 on human recombinant BACE2 was 66 nM; at Cathepsin D (CatD) it was 32200 nM.

With `Cc1cc(COc2cnc(/C(F)=C/c3cc(F)c(F)c([C@]4(C)CS(=O)(=O)N(C)C(N)=N4)c3)cn2)no1` [Example 223, (R,Z)-3-amino-5-(2,3-difluoro-5-(2-fluoro-2-(5-((5-methylisoxazol-3-yl)methoxy)pyrazin-2-yl)vinyl)phenyl)-2,5-dimethyl-5,6-dihydro-2H-1,2,4-thiadiazine 1,1-dioxide], the IC50 is 210 nM on human recombinant BACE2 and 22300 nM at Cathepsin D (CatD).

As to `Cc1noc(COc2cnc(/C(F)=C/c3cc(F)c(F)c([C@]4(C)CS(=O)(=O)N(C)C(N)=N4)c3)cn2)n1` [Example 224, (R,Z)-3-amino-5-(2,3-difluoro-5-(2-fluoro-2-(5-((3-methyl-1,2,4-oxadiazol-5-yl)methoxy)pyrazin-2-yl)vinyl)phenyl)-2,5-dimethyl-5,6-dihydro-2H-1,2,4-thiadiazine 1,1-dioxide], the IC50 at human recombinant BACE2 was determined as 421 nM; at Cathepsin D (CatD), 74800 nM.

As to `CN1C(N)=N[C@](C)(c2cc(/C=C(\F)c3cnc(OCc4cocn4)cn3)cc(F)c2F)CS1(=O)=O` [Example 225, (R,Z)-3-amino-5-(2,3-difluoro-5-(2-fluoro-2-(5-(oxazol-4-ylmethoxy)pyrazin-2-yl)vinyl)phenyl)-2,5-dimethyl-5,6-dihydro-2H-1,2,4-thiadiazine 1,1-dioxide], the IC50 at human recombinant BACE2 is 84 nM; on Cathepsin D (CatD), 69800 nM.

`CN1C(N)=N[C@](C)(c2cc(/C=C(\F)c3cnc(OCc4ncccn4)cn3)cc(F)c2F)CS1(=O)=O` [Example 228, (R,Z)-3-amino-5-(2,3-difluoro-5-(2-fluoro-2-(5-(pyrimidin-2-ylmethoxy)pyrazin-2-yl)vinyl)phenyl)-2,5-dimethyl-5,6-dihydro-2H-1,2,4-thiadiazine 1,1-dioxide]: the results for the IC50 at human recombinant BACE2 and on Cathepsin D (CatD) were 266 nM and 39500 nM, respectively.

As to `Cc1nc(COc2cnc(/C(F)=C/c3cc(F)c(F)c([C@]4(C)CS(=O)(=O)N(C)C(N)=N4)c3)cn2)no1` [Example 229, (R,Z)-3-amino-5-(2,3-difluoro-5-(2-fluoro-2-(5-((5-methyl-1,2,4-oxadiazol-3-yl)methoxy)pyrazin-2-yl)vinyl)phenyl)-2,5-dimethyl-5,6-dihydro-2H-1,2,4-thiadiazine 1,1-dioxide], the IC50 came out at 257 nM on human recombinant BACE2 and 68200 nM on Cathepsin D (CatD).

`Cc1nnc(COc2cnc(/C(F)=C/c3cc(F)c(F)c([C@]4(C)CS(=O)(=O)N(C)C(N)=N4)c3)cn2)o1` [Example 233, (R,Z)-3-amino-5-(2,3-difluoro-5-(2-fluoro-2-(5-((5-methyl-1,3,4-oxadiazol-2-yl)methoxy)pyrazin-2-yl)vinyl)phenyl)-2,5-dimethyl-5,6-dihydro-2H-1,2,4-thiadiazine 1,1-dioxide]: the IC50 amounted to 621 nM on human recombinant BACE2 and 51700 nM at Cathepsin D (CatD).

As for `Cc1csc(COc2cnc(/C(F)=C/c3cc(F)c(F)c([C@]4(C)CS(=O)(=O)N(C)C(N)=N4)c3)cn2)n1` [Example 237, (R,Z)-3-amino-5-(2,3-difluoro-5-(2-fluoro-2-(5-((4-methylthiazol-2-yl)methoxy)pyrazin-2-yl)vinyl)phenyl)-2,5-dimethyl-5,6-dihydro-2H-1,2,4-thiadiazine 1,1-dioxide], the values for the IC50 at human recombinant BACE2 and at Cathepsin D (CatD) were 103 nM and 25400 nM, respectively.

In the case of `Cc1nc(COc2cnc(/C(F)=C/c3cc(F)c(F)c([C@]4(C)CS(=O)(=O)N(C)C(N)=N4)c3)cn2)c(C)o1` [Example 238, (R,Z)-3-amino-5-(5-(2-(5-((2,5-dimethyloxazol-4-yl)methoxy)pyrazin-2-yl)-2-fluorovinyl)-2,3-difluorophenyl)-2,5-dimethyl-5,6-dihydro-2H-1,2,4-thiadiazine 1,1-dioxide], the IC50 on human recombinant BACE2 was 94 nM; on Cathepsin D (CatD), 46800 nM.

With `CCOC(=O)COc1cnc(/C(F)=C/c2cc(F)c(F)c([C@]3(C)CS(=O)(=O)N(C)C(N)=N3)c2)cn1` [Example 243, (R,Z)-ethyl 2-((5-(2-(3-(3-amino-2,5-dimethyl-1,1-dioxido-5,6-dihydro-2H-1,2,4-thiadiazin-5-yl)-4,5-difluorophenyl)-1-fluorovinyl)pyrazin-2-yl)oxy)acetate], the IC50 worked out at 398 nM on human recombinant BACE2 and 90300 nM at Cathepsin D (CatD).

On to `Cc1cnc(COc2cnc(/C(F)=C/c3cc(F)c(F)c([C@]4(C)CS(=O)(=O)N(C)C(N)=N4)c3)cn2)o1` [Example 246, (R,Z)-3-amino-5-(2,3-difluoro-5-(2-fluoro-2-(5-((5-methyloxazol-2-yl)methoxy)pyrazin-2-yl)vinyl)phenyl)-2,5-dimethyl-5,6-dihydro-2H-1,2,4-thiadiazine 1,1-dioxide], for which the IC50 on human recombinant BACE2 is 111 nM; at Cathepsin D (CatD) it was 34900 nM.

In the case of `CN1C(N)=N[C@](C)(c2cc(/C=C(\F)c3cnc(OCc4nccn4C)cn3)cc(F)c2F)CS1(=O)=O` [Example 249, (R,Z)-3-amino-5-(2,3-difluoro-5-(2-fluoro-2-(5-((1-methyl-1H-imidazol-2-yl)methoxy)pyrazin-2-yl)vinyl)phenyl)-2,5-dimethyl-5,6-dihydro-2H-1,2,4-thiadiazine 1,1-dioxide], the IC50 at human recombinant BACE2 was 1820 nM; on Cathepsin D (CatD), greater than 400000 nM.

Regarding `CN1C(N)=N[C@](C)(c2cc(/C=C(\F)c3cc4nccnc4cn3)ccc2F)CS1(=O)=O` [Example 250, (5R)-5-(2-fluoro-5-((Z)-2-fluoro-2-(pyrido[3,4-b]pyrazin-7-yl)ethenyl)phenyl)-2,5-dimethyl-5,6-dihydro-2H-1,2,4-thiadiazin-3-amine 1,1-dioxide], at Cathepsin D (CatD), the IC50 is greater than 400000 nM.
